Test results taken from patent US20060069132A1, “Azolecarboxamide herbicides” (priority 2004, published 2006).

Key:
wild oat = assay: Test B postemergence herbicide test; assay type: in vivo, Avena fatua; settings: postemergence, visual rating, scale 0 (no effect) to 100 (complete control)
In short: (§1)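 Formulated test chemicals went onto postemergence plants measuring 2 to 18 cm, at one to four leaves. For the paddy assay, species had reached two leaves. Scoring took place 13–15 days later by eye, relative to untreated plants, using 0 for no effect up to 100 for full control.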

barnyardgrass [1] = assay: Test C flooded paddy test; assay type: in vivo, Echinochloa crus-galli
In short: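 Greenhouse test with a 12–14 day hold after application and visual comparison with controls. Emerged plants were 1- to 4-leaf stage (2–18 cm) when sprayed postemergence, and the paddy barnyardgrass was at 2 leaves under flooded conditions. 100 = complete control.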

morningglory = assay: Test B pre-/postemergence herbicide test; assay type: in vivo, Ipomoea coccinea; settings: for Morningglory plant response rating: postemergence, scale 0 (no effect) to 100 (complete control)
In short: (§2)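 Response was scored visually 13 to 15 days after treatment against untreated greenhouse controls, 0 meaning no effect and 100 complete control. Formulations (solvent mixture plus surfactant) went onto soil after planting, onto foliage of 1- to 4-leaf plants, and onto 2-leaf plants in a flooded paddy set including rice and barnyardgrass.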

velvetleaf = assay: Test B pre-/postemergence herbicide test; assay type: in vivo, Abutilon theophrasti; settings: for Velvetleaf plant response rating: postemergence, scale 0 (no effect) to 100 (complete control)
In short: (§3)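 Flooded paddy rice and barnyardgrass were treated at the 2-leaf stage; upland plantings received compound either on sown seed or on 1- to 4-leaf seedlings. All were kept 13–15 days in a greenhouse and scored visually, 0–100, relative to untreated plants.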

wheat = assay: Test B postemergence herbicide test; assay type: in vivo, Triticum aestivum; parameters: key to Wheat plant response rating: 0 = no effect, 100 = complete control; settings: postemergence, visual rating, scale 0 (no effect) to 100 (complete control)
In short: as §1

rice [2] = assay: Test B pre-/postemergence herbicide test; assay type: in vivo, Oryza sativa; settings: 0 = no effect, 100 = complete control, preemergence
In short: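 Evaluation is visual, comparing treated with control plants on a scale where 0 means no effect and 100 means full control. Treatments were preemergence, or postemergence on seedlings 2–18 cm tall, and held 13–15 days in the greenhouse.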

ducksalad [3] = assay: Test C flooded paddy test; assay type: in vivo, Heteranthera limosa
barnyardgrass [4] = assay: Test B pre-/postemergence herbicide test; assay type: in vivo, Echinochloa crus-galli; settings: for Barnyardgrass plant response rating: postemergence, scale 0 (no effect) to 100 (complete control)
In short: as §2

pigweed = assay: Test B pre-/postemergence herbicide test; assay type: in vivo, Amaranthus retroflexus; settings: for Pigweed plant response rating: postemergence, scale 0 (no effect) to 100 (complete control)
In short: as §3

ducksalad [5] = assay: Test B flooded paddy test; assay type: in vivo, Heteranthera limosa; settings: 1000 g ai/ha, scale 0 to 100 (0 no effect, 100 complete control)
In short: (§4)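 Visual control ratings, 0–100 versus untreated controls, taken after 13 to 15 days in the greenhouse. Blackgrass received a postemergence spray at the 1- to 4-leaf stage (2–18 cm); ducksalad, umbrella sedge and barnyardgrass were flooded-paddy treated at 2 leaves.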

rice [6] = assay: Test B flooded paddy test; assay type: in vivo, Oryza sativa; settings: 1000 g ai/ha, scale 0 to 100 (0 no effect, 100 complete control)
In short: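 After treating 2-leaf paddy plants or 2–18 cm postemergence plants (1 to 4 leaves) with formulated chemical, researchers kept them in a greenhouse for 13–15 days. Effects were judged visually versus controls: 0 indicates none, 100 total control.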

barnyardgrass [7] = assay: Test B flooded paddy test; assay type: in vivo, Echinochloa crus-galli; settings: 1000 g ai/ha, scale 0 to 100 (0 no effect, 100 complete control)
In short: as §4

[8] = system: smallflower umbrella sedge; assay: Test C flooded paddy test; assay type: in vivo, Cyperus difformis
giant foxtail = assay: Test B pre-/postemergence herbicide test; assay type: in vivo, Setaria faberi; settings: for Foxtail, Giant plant response rating: postemergence, scale 0 (no effect) to 100 (complete control)
In short: as §3

blackgrass = assay: Test B postemergence herbicide test; assay type: in vivo, Alopecurus myosuroides; settings: postemergence, visual rating, scale 0 (no effect) to 100 (complete control)
In short: as §4

Surinam grass = assay: Test B pre-/postemergence herbicide test; assay type: in vivo, Urochloa decumbens; settings: for Surinam Grass plant response rating: postemergence, scale 0 (no effect) to 100 (complete control)
In short: as §3

cocklebur = assay: Test B pre-/postemergence herbicide test; assay type: in vivo, Xanthium strumarium; settings: for Cocklebur plant response rating: postemergence, scale 0 (no effect) to 100 (complete control)
In short: as §2

large crabgrass = assay: Test B pre-/postemergence herbicide test; assay type: in vivo, Digitaria sanguinalis; settings: for Crabgrass, Large plant response rating: postemergence, scale 0 (no effect) to 100 (complete control)
In short: as §3

corn = assay: Test B pre-/postemergence herbicide test; assay type: in vivo, Zea mays; settings: for Corn plant response rating: postemergence, scale 0 (no effect) to 100 (complete control)
In short: as §3

rice [9] = assay: Test C flooded paddy test; assay type: in vivo, Oryza sativa
In short: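 Injury scored visually against controls on a 0 (no effect) to 100 (complete control) scale, 12 to 14 days after treatment in greenhouse. Flooded paddy plants treated at 2-leaf stage; postemergence plants at 1- to 4-leaf stage, 2 to 18 cm tall.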

[10] = system: small flower umbrella sedge; assay: Test B flooded paddy test; assay type: in vivo, Cyperus difformis; settings: 1000 g ai/ha, scale 0 to 100 (0 no effect, 100 complete control)
In short: as §4

lambsquarters = assay: Test B pre-/postemergence herbicide test; assay type: in vivo, Chenopodium album; settings: for Lambsquarters plant response rating: postemergence, scale 0 (no effect) to 100 (complete control)
In short: as §3

[11] = 62 g ai/ha, scale 0 to 100 (0 no effect, 100 complete control)
[12] = 125 g ai/ha, scale 0 to 100 (0 no effect, 100 complete control)
[13] = 250 g ai/ha, scale of 0 to 100, 0 is no effect, 100 is complete control
[14] = 500 g ai/ha, visual rating after 12 to 14 days, scale 0 to 100 (0 no effect, 100 complete control)
[15] = 125 g ai/ha, 0 = no effect, 100 = complete control, preemergence
[16] = 500 g ai/ha, visual rating, 0 = no effect, 100 = complete control, preemergence

## CCc1nc(C(C)(C)C)sc1C(=O)Nc1cc(C(=O)N(C)CC)ccc1F [Compound 231]
Wild oat; 125 g ai/ha
  Oat, Wild plant response rating: 20
Wild oat; 500 g ai/ha
  Oat, Wild plant response rating: 40
Barnyardgrass [1]; [11]
  Barnyardgrass plant response rating: 40
Barnyardgrass [1]; [12]
  Barnyardgrass plant response rating: 45
Barnyardgrass [1]; [13]
  Barnyardgrass plant response rating: 75
Barnyardgrass [1]; [14]
  Plant response rating, Barnyardgrass: 80
morningglory; [15]
  Morningglory plant response rating (0 to 100 scale): 10
morningglory; [16]
  Plant response rating, Morningglory: 10
morningglory; 125 g ai/ha, visual rating
  Morningglory plant response rating: 20
morningglory; 500 g ai/ha, visual rating
  Morningglory plant response rating: 70
velvetleaf; [15]
  Velvetleaf plant response rating (0 to 100 scale): 30
velvetleaf; [16]
  Plant response rating, Velvetleaf: 90
velvetleaf; 125 g ai/ha, visual rating
  Velvetleaf plant response rating: 30
velvetleaf; 500 g ai/ha, visual rating
  Velvetleaf plant response rating: 50
wheat; 125 g ai/ha
  Wheat plant response rating: 20
wheat; 500 g ai/ha
  Wheat plant response rating: 40
Rice [2]; 125 g ai/ha
  Rice plant response rating (0 to 100 scale): 20
Rice [2]; 500 g ai/ha, visual rating
  Plant response rating, Rice: 50
Ducksalad [3]; [11]
  Ducksalad plant response rating: 10
Ducksalad [3]; [12]
  Ducksalad plant response rating: 60
Ducksalad [3]; [13]
  Ducksalad plant response rating: 70
Ducksalad [3]; [14]
  Plant response rating, Ducksalad: 80
Barnyardgrass [4]; [15]
  Barnyardgrass plant response rating (0 to 100 scale): 50
Barnyardgrass [4]; [16]
  Plant response rating, Barnyardgrass: 80
Barnyardgrass [4]; 125 g ai/ha, visual rating
  Barnyardgrass plant response rating: 10
Barnyardgrass [4]; 500 g ai/ha, visual rating
  Barnyardgrass plant response rating: 40
pigweed; [15]
  Pigweed plant response rating (0 to 100 scale): 60
pigweed; [16]
  Plant response rating, Pigweed: 100
pigweed; 125 g ai/ha, visual rating
  Pigweed plant response rating: 50
pigweed; 500 g ai/ha, visual rating
  Pigweed plant response rating: 70
Ducksalad [5]
  Ducksalad plant response rating: 90
Rice [6]
  Rice plant response rating: 80
Barnyardgrass [7]
  Barnyardgrass plant response rating: 80
[8]; [11]
  Sedge, Umbrella plant response rating: 10
[8]; [12]
  Sedge, Umbrella plant response rating: 55
[8]; [13]
  Sedge, Umbrella plant response rating: 65
[8]; [14]
  Plant response rating, Sedge, Umbrella: 75
Giant foxtail; [15]
  Foxtail, Giant plant response rating (0 to 100 scale): 60
Giant foxtail; [16]
  Plant response rating, Foxtail, Giant: 90
Giant foxtail; 125 g ai/ha, visual rating
  Foxtail, Giant plant response rating: 20
Giant foxtail; 500 g ai/ha, visual rating
  Foxtail, Giant plant response rating: 30
blackgrass; 125 g ai/ha
  Blackgrass plant response rating: 20
blackgrass; 500 g ai/ha
  Blackgrass plant response rating: 30
Surinam grass; [15]
  Surinam Grass plant response rating (0 to 100 scale): 20
Surinam grass; [16]
  Plant response rating, Surinam Grass: 60
Surinam grass; 125 g ai/ha, visual rating
  Surinam Grass plant response rating: 10
Surinam grass; 500 g ai/ha, visual rating
  Surinam Grass plant response rating: 30
cocklebur; [15]
  Cocklebur plant response rating (0 to 100 scale): 0
cocklebur; [16]
  Plant response rating, Cocklebur: 30
cocklebur; 125 g ai/ha, visual rating
  Cocklebur plant response rating: 10
cocklebur; 500 g ai/ha, visual rating
  Cocklebur plant response rating: 40
Large crabgrass; [15]
  Crabgrass, Large plant response rating (0 to 100 scale): 30
Large crabgrass; [16]
  Plant response rating, Crabgrass, Large: 90
Large crabgrass; 125 g ai/ha, visual rating
  Crabgrass, Large plant response rating: 20
Large crabgrass; 500 g ai/ha, visual rating
  Crabgrass, Large plant response rating: 20
corn; [15]
  Corn plant response rating (0 to 100 scale): 0
corn; [16]
  Plant response rating, Corn: 50
corn; 125 g ai/ha, visual rating
  Corn plant response rating: 10
corn; 500 g ai/ha, visual rating
  Corn plant response rating: 20
Rice [9]; [11]
  Rice plant response rating: 30
Rice [9]; [12]
  Rice plant response rating: 55
Rice [9]; [13]
  Rice plant response rating: 75
Rice [9]; [14]
  Plant response rating, Rice: 80
[10]
  Sedge, Umbrella plant response rating: 90
lambsquarters; [15]
  Lambsquarters plant response rating (0 to 100 scale): 80
lambsquarters; [16]
  Plant response rating, Lambsquarters: 100
lambsquarters; 125 g ai/ha, visual rating
  Lambsquarters plant response rating: 60
lambsquarters; 500 g ai/ha, visual rating
  Lambsquarters plant response rating: 70
